The values that follow come from article PMC4977465, “Repositioning organohalogen drugs: a case study for identification of potent B-Raf V600E inhibitors via docking and bioassay” (Scientific Reports, 2016).

What all share (assay type): biochemical
In one assay the target is B-Raf V600E (Homo sapiens, UniProt P15056, V600E). Briefly: ELISA-based assay of inhibitory activity against B-Raf V600E (MEK to p-MEK). The conditions noted are these: for inhibition at 10 µM: read-out: Inhibition Rate (at 10 μM). A general note: ELISA stands for enzyme-linked immunosorbent assay.
Sequence of B-Raf V600E (P15056 whole entry V600E): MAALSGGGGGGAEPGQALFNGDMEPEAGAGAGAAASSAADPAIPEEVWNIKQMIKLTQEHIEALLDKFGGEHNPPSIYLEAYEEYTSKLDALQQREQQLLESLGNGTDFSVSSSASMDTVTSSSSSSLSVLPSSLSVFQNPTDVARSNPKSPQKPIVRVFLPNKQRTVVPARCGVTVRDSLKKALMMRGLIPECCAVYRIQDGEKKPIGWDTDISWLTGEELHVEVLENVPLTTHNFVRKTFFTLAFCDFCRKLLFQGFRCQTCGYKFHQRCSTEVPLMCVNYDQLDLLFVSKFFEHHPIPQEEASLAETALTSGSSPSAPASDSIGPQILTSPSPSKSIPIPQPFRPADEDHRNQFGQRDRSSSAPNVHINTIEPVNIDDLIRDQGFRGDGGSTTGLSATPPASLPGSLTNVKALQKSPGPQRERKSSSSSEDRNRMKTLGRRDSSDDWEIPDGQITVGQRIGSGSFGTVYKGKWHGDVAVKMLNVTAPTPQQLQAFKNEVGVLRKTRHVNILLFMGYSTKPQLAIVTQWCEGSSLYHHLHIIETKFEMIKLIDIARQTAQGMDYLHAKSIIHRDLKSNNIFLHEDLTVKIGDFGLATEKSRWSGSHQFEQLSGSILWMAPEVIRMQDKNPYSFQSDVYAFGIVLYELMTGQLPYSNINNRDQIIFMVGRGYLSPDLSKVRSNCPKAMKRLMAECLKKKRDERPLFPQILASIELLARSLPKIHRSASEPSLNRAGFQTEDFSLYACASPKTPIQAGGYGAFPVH
A further assay deals with T1, B-Raf T508A (Homo sapiens, UniProt P15056, T508A).
T1 construct: B-RAFT508A and B-RAFS602A, residues 433–726; made in house; host or cells: Sf9 insect cells (pFastBac Dual)
T1 sequence (P15056 433-726 T508A): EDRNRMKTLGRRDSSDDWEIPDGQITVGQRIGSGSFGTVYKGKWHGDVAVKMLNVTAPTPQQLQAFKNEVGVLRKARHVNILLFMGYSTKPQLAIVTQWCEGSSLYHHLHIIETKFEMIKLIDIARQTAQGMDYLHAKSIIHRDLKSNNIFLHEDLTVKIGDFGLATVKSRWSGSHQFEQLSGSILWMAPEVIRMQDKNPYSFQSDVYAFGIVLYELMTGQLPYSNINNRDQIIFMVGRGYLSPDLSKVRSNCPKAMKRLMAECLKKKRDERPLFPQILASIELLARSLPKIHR
The assay is described as follows: ELISA-based assay, single point mutant B-Raf T508A. The source says: (§1) The mutant sequence of human BRAF kinase domain (B-RAFT508A and B-RAFS602A, residues 433–726) was inserted into the plasmid of pFastBacTM Dual. Then the recombinant plasmid was transported into the sf9 cells. Mutant protein was expressed and purified respectively.

The next assay has as its target T2, B-Raf S602A (Homo sapiens, UniProt P15056, S602A).
T2 construct: B-RAFT508A and B-RAFS602A, residues 433–726; made in house; host or cells: Sf9 insect cells (pFastBac Dual)
Briefly: ELISA-based assay, single point mutant B-Raf S602A.
Excerpt: as §1

A further assay deals with wild type B-Raf (Homo sapiens, UniProt P15056). Briefly: ELISA-based assay, wild type B-Raf.
Sequence of wild type B-Raf (P15056 whole entry): as the sequence (P15056 whole entry V600E) above, with E600V counted along it

Molecules are shown by their SMILES. Read-outs that look alike come from different tables or passages of the source.

T2 sequence (P15056 433-726 S602A): as the sequence (P15056 433-726 T508A) above, with A76T, S170A counted along it

Consider `CCCS(=O)(=O)Nc1ccc(F)c(C(=O)c2c[nH]c3ncc(Cl)cc23)c1F` [PLX4720], for which the inhibition at 10 µM at B-Raf V600E (B-Raf V600E, 10 μM) was 82.5%.
Regarding `Cc1cc(C(C#N)c2ccc(Cl)cc2)c(Cl)cc1NC(=O)c1cc(I)cc(I)c1O` (centres unmarked) [closantel], the IC50 on B-Raf T508A (B-Raf T508A mutant, read-out: IC50 B-RAF T508A) stood at 5.97 µM; on B-Raf S602A (B-Raf S602A mutant, read-out: IC50 B-RAF S602A) it was 6.35 µM; on B-Raf V600E (B-Raf V600E, read-out: IC50 B-RAF V600E), 1900 nM; at wild type B-Raf (wild type B-Raf, read-out: IC50 B-RAF WT) it was 1890 nM. On B-Raf V600E, the inhibition at 10 µM was determined as 83.9%.
Take `CC1(C)C(C=C(Cl)Cl)C1C(=O)OC(C#N)c1cccc(Oc2ccccc2)c1` (centres unmarked) [cypermethrin]: the “activity against B-Raf V600E (in words)” value at B-Raf V600E (ELISA-based assay, 10 μM) is “inactive”. Further, at B-Raf V600E, the inhibition at 10 µM turned out to be 17.6%.
In the case of `O=C(Nc1ccc(Oc2ccc(Cl)cc2)c(Cl)c1)c1cc(I)cc(I)c1O` [rafoxanide], the IC50 at B-Raf T508A turned out to be 15.7 µM; on B-Raf S602A it was 11.4 µM; against B-Raf V600E, 70 nM; against wild type B-Raf it was 1940 nM. Also, on B-Raf V600E, the inhibition at 10 µM was 73.2%.
Regarding `CCCS(=O)(=O)Nc1ccc(F)c(C(=O)c2c[nH]c3ncc(-c4ccc(Cl)cc4)cc23)c1F` [vemurafenib], the inhibition at 10 µM at B-Raf V600E (B-Raf V600E, 10 μM) was 82.9%.

Usually inhibition stands for the share of the control response that was lost under treatment. The term IC50 denotes the concentration that inhibits the measured activity by half.
